Values belong to the compound of their own block, whether it stands above or below them.
Tests used:
[1] = test system: CYP2J2; conditions: projected; ref [14]; cited from earlier work
[2] = target: T1, CYP2J2 (Homo sapiens, UniProt P51589); test: in vitro; conditions: recombinant enzyme
T1 sequence (P51589 1-502): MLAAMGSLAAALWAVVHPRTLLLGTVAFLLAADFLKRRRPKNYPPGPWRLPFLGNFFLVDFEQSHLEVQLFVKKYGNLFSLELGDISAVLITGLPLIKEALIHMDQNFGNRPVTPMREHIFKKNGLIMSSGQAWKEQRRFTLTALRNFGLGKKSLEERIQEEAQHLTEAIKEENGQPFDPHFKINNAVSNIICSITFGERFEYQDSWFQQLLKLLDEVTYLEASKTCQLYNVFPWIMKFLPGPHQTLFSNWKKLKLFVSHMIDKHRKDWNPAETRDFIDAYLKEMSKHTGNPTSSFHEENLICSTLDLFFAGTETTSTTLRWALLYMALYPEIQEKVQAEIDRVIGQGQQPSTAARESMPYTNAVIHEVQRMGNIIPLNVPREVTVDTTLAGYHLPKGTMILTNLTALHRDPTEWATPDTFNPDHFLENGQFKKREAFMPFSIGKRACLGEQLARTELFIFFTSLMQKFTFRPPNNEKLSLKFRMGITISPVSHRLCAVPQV

[3] = Plasma concentration-time profile of RTV and metabolites; type: in vivo; conditions: human, 400 mg bid
[4] = target: CYP2D6 (Homo sapiens, UniProt P10635); conditions: CYP2D6, R2 formation; ref [6], [34]; cited from earlier work
Sequence of CYP2D6 (P10635 whole entry): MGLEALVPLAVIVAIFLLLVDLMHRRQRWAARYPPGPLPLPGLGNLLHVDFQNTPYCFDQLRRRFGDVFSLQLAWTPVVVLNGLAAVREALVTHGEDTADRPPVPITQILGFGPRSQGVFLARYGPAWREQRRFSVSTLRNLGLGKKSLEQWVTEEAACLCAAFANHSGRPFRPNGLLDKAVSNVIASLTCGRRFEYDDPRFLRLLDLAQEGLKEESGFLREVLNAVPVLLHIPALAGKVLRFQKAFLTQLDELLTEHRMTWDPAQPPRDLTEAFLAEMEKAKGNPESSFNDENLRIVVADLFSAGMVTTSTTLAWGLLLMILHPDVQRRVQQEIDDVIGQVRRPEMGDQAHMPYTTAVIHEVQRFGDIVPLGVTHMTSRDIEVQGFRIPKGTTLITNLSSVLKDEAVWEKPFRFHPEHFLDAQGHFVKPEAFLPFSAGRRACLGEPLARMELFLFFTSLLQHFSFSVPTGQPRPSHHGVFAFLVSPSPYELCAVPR

[5] = test system: CYP3A4; conditions: ref [27] [11]; cited from earlier work
[6] = target: T1, CYP2J2; conditions: CYP2J2, linear scaled according to kinact/KI (SCHH approach)

SMILES: CC(C)(C)c1ccc(C(=O)CCCN2CCC(OC(c3ccccc3)c3ccccc3)CC2)cc1 [ebastine]
contribution of CYP2J2 to intestinal ebastine hydroxylation [1]: ≤ 70%

inhibition at 5 min [2]: 95%
SMILES: C#C[C@]1(O)CC[C@H]2[C@@H]3CCC4=Cc5oncc5C[C@]4(C)[C@H]3CC[C@@]21C [danazol]

Cmax [3]: 4.8 µM | slope at 1 μM [6]: 0.0044 ^4 μM min^-1
SMILES: CC(C)c1nc(CN(C)C(=O)N[C@H](C(=O)N[C@@H](Cc2ccccc2)C[C@H](O)[C@H](Cc2ccccc2)NC(=O)OCc2cncs2)C(C)C)cs1 [RTV, Ritonavir]
Km [4]: 1.6 µM | slope at 1 μM [5]: 0.17 ^2 μM min^-1

Reference: article PMC4169885 (Biochemical pharmacology, 2014)
